Test results published in patent EP0315434A2, “Pyridoxal hydrazone derivatives their production and use and pharmaceutical compositions containing the same” (YISSUM RESEARCH DEVELOPMENT COMPANY OF THE HEBREW …, priority 1987, dated 1989).

Key:
[1] = Fate of ⁵⁹Fe tracer incubated with chelator and injected into normal rats (radioiron distribution and excretion); type: in vivo; conditions: for Radioiron Distribution in % Feces / Radioiron Distribution in % Total excretion / Radioiron Distribution in % Urine / Radioiron Distribution in % Blood / Radioiron Distribution in % Liver / Radioiron Distribution in % Spleen: 10 mg chelator with ⁵⁹Fe, subcutaneous, normal rats; for Radioiron Distribution in % Feces / Radioiron Distribution in % Total excretion / Radioiron Distribution in % Urine: cumulative within 4 days; for Radioiron Distribution in % Blood / Radioiron Distribution in % Liver / Radioiron Distribution in % Spleen: within 4 days; for TOTAL EXCRETION OF RADIO-IRON IN RATS %: as in Table 1
Protocol: Table 1 describes the fate of ⁵⁹Fe tracer reincubated […] with 10 mg of some of the above iron chelators and then injected subcutaneously to groups of 4 normal rats. Numbers represent mean cumulative radioiron excretion within 4 days of injection. For comparison, spontaneous excretion of radioiron and the excretion of desferrioxamine (DF) bound radioiron are also given. […]
Spleen and kidney were counted as whole organs.
The excretion of radioiron following ⁵⁹Fe labelling was measured in animals confined to solitary metabolic cages with stainless steel grid bottoms, and stool and urine were collected separately.

[2] = background statement, "probably"; cited from earlier work
[3] = Mobilization of iron from hepatic parenchymal stores in hypertransfused rats labelled with ⁵⁹Fe-ferritin; type: in vivo; conditions: for ORGAN DISTRIBUTION AND EXCRETION OF ⁵⁹Fe-FERRITIN (%) BLOOD / ORGAN DISTRIBUTION AND EXCRETION OF ⁵⁹Fe-FERRITIN (%) LIVER / ORGAN DISTRIBUTION AND EXCRETION OF ⁵⁹Fe-FERRITIN (%) STOOL / ORGAN DISTRIBUTION AND EXCRETION OF ⁵⁹Fe-FERRITIN (%) TOTAL EXCRETION / ORGAN DISTRIBUTION AND EXCRETION OF ⁵⁹Fe-FERRITIN (%) URINE: after 4 days, Desferral i.p., route not printed for Ex. 4 and Ex. 5, mean ± SD
Protocol: In each case, 40 mg of each compound was administered per animal in a single subcutaneous injection.
In vivo studies of chelating efficiency were performed in two models: (a) normal rats injected i.p. with 10 mg of either desferrioxamine B (DF), PIH of the prior art, PPH of Example 4 or PPHE from Example 5 labelled in vitro with ⁵⁹Fe; and (b) hypertransfused rats receiving twice 4 ml/100gm packed RBC intravenously 5 and 3 days prior to study (hematocrit 68%) and labelled with ⁵⁹Fe-ferritin injected i.v. 24h prior to iron chelating therapy as described previously. Drugs to be tested in the ⁵⁹Fe-ferritin model were given either by i.p. injection or by gastric tube at a dose of 40 mg per animal. Radioiron excretion and organ distribution were determined after 4 days
The radioactivity of spleen, weighed portions of the liver, and 1 ml samples of blood were determined in an automatic well type scintillation counter (Packard Autogamma Model 5360 Scintillation spectrometer). Spleen and kidney were counted as whole organs.
Whole body counts were performed in a small animal counter (Packard Model 446 Armac) scintillation detector. The excretion of radioiron following ⁵⁹Fe labelling was measured in animals confined to solitary metabolic cages with stainless steel grid bottoms, and stool and urine were collected separately.

[4] = test system: non-resistant strain of P. falciparum; conditions: molar concentration 1.5 x 10⁻⁵, according to Raventos-Suarez; cited from earlier work
[5] = stated as known; cited from earlier work
[6] = test system: chloroquine-resistant strain of P. falciparum (FCR-3); conditions: molar concentration 2 x 10⁻⁵; cultured 3 days
Protocol: Cultures of a chloroquine-resistant strain of P. falciparum (FCR-3), cultivated in human erythrocytes (a technique widely used at the Kuvin Centre, Hebrew University Hadassah Medical School), were suspended in solutions containing chelators and then cultured for 3 days. Growth of parasites was determined by either slide counts or by incorporation of ³H-hypoxanthine. The parasite growth was monitored by microscopic slide counts. […]

[7] = Iron chelation in H₂O (spectrophotometric, apparent K), ferrous ions; type: physicochemical
[8] = rats
[9] = 40 mg i.p., hypertransfused rats, 4 days
[10] = hypertransfused rats, 40 mg per animal
[11] = hypertransfused rats, 40 mg per animal, listed as desferral
[12] = hypertransfused rats, 40 mg per animal, single subcutaneous injection
[13] = oral administration of 40 mg, hypertransfused rats

CC(=O)N(O)CCCCCNC(=O)CCC(=O)N(O)CCCCCNC(=O)CCC(=O)N(O)CCCCCN [Desferral, desferrioxamine, reference compound]
Radioiron Distribution in % Feces [1]: 13.5±0.7%
Radioiron Distribution in % Total excretion [1]: 85.4±4.3%
Radioiron Distribution in % Urine [1]: 71.9±3.6%
Radioiron Distribution in % Blood [1]: 8.7±1.6%
Radioiron Distribution in % Liver [1]: 2.7±0.3%
Radioiron Distribution in % Spleen [1]: 0.14±0.03%
TOTAL EXCRETION OF RADIO-IRON IN RATS % [1]: 85.4± 4.3%
half life in vivo [2]: less than 1 hr
reduction in hepatocellular (hepatic) radioactivity [3, 9]: 20%
ORGAN DISTRIBUTION AND EXCRETION OF ⁵⁹Fe-FERRITIN (%) BLOOD [3, 10]: 4.5±0.4%
ORGAN DISTRIBUTION AND EXCRETION OF ⁵⁹Fe-FERRITIN (%) LIVER [3, 10]: 70.4± 6.0%
ORGAN DISTRIBUTION AND EXCRETION OF ⁵⁹Fe-FERRITIN (%) STOOL [3, 10]: 23.3±0.1%
ORGAN DISTRIBUTION AND EXCRETION OF ⁵⁹Fe-FERRITIN (%) TOTAL EXCRETION [3, 10]: 24.5±0.1%
ORGAN DISTRIBUTION AND EXCRETION OF ⁵⁹Fe-FERRITIN (%) URINE ([3]; hypertransfused rats, 40 mg per animal, listed as DESFERRAL): 1.2±0%
ORGAN DISTRIBUTION AND EXCRETION OF ⁵⁹Fe-FERRITIN (%) STOOL [3, 11]: 23%
ORGAN DISTRIBUTION AND EXCRETION OF ⁵⁹Fe-FERRITIN (%) URINE [3, 11]: negligible
Ferritin-⁵⁹Fe distribution in % Blood [3, 12]: 4.5±0.4%
Ferritin-⁵⁹Fe distribution in % Feces [3, 12]: 23.3±0.1%
Ferritin-⁵⁹Fe distribution in % Liver [3, 12]: 70.4±6.0%
Ferritin-⁵⁹Fe distribution in % Residual [3, 12]: 0%
Ferritin-⁵⁹Fe distribution in % Spleen [3, 12]: 0.6±0.1%
Ferritin-⁵⁹Fe distribution in % Urine [3, 12]: 1.2±0%
total radioiron excretion ([3]; oral, 40 mg drug/animal by gastric tube, hypertransfused ⁵⁹Fe-ferritin labelled rats): 6.0%
INHIBITION OF GROWTH OF P. falciparum % INHIBITION [4]: complete after 96 Hrs. ^(*)
oral efficiency [5]: no oral efficiency

CCOC(=O)[n+]1cc(CO)c(C=NNc2ncccn2)c(O)c1C [Ex. 5, 1-(N-ethoxycarbonylpyridoxylidenium]-2-[2′-pyrimidyl] hydrazine]
Radioiron Distribution in % Feces [1]: 67.3±2.4%
Radioiron Distribution in % Total excretion [1]: 96.2±3.4%
Radioiron Distribution in % Urine [1]: 28.9±1.0%
Radioiron Distribution in % Blood [1]: 4.2±0.2%
Radioiron Distribution in % Liver [1]: 2.9±0.2%
Radioiron Distribution in % Spleen [1]: 0.06±0.03%
TOTAL EXCRETION OF RADIO-IRON IN RATS % [1]: 96.2± 3.4%
excretion of the radioiron label in the stool [3, 9]: 72%
reduction in hepatocellular (hepatic) radioactivity [3, 9]: 69%
ORGAN DISTRIBUTION AND EXCRETION OF ⁵⁹Fe-FERRITIN (%) BLOOD [3, 10]: 3.1±0.6%
ORGAN DISTRIBUTION AND EXCRETION OF ⁵⁹Fe-FERRITIN (%) LIVER [3, 10]: 63.8± 8.7%
ORGAN DISTRIBUTION AND EXCRETION OF ⁵⁹Fe-FERRITIN (%) STOOL [3, 10]: 27.6±1.3%
ORGAN DISTRIBUTION AND EXCRETION OF ⁵⁹Fe-FERRITIN (%) TOTAL EXCRETION [3, 10]: 28.1±1.3%
ORGAN DISTRIBUTION AND EXCRETION OF ⁵⁹Fe-FERRITIN (%) URINE [3, 10]: 0.5±0%
greater oral chelating efficiency than an identical dose of parenteral DF ([3]; oral 40 mg versus parenteral DF 40 mg): roughly 20%
excretion of radioiron [3, 13]: 28%
reduction in hepatic ⁵⁹Fe [3, 13]: 27%
INHIBITION OF GROWTH OF DRUG-RESISTANT STRAIN OF P. falciparum % INHIBITION [6]: 90.3%
effectiveness in the chelation test relative to prior art PIH ([7]; compared with PIH): about sixty times more effective
higher affinity for ferrous than for ferric ions ([7]; ferrous versus ferric): ~30 fold
tolerance ([8]; 100 mg/kg/d by oral or parenteral administration): well tolerated
biochemical tests of hepatic and renal function, complete blood counts, hepatic and renal histology ([8]; after 3 months of continuous treatment): no indications of toxicity
